Drawing on ChEMBL document CHEMBL3507680, “University of Dundee, Gates Library screen for HepG2 cell viability”, this text covers cytotoxicity for 71 compounds.

Structures are written as SMILES.

The nature of this series: Human HepG2 cell viability assay in 384 well format. The format is toxicity, cell-based. Further details: dose 125 nL, time 70.5 hour; concentration not given beside the values. Particulars: HepG2 cells, read-out: Inhibition.
In the case of `CCc1csc(CCNC(=O)CC2CCN(C(C)C)CC2)n1`, the cytotoxicity at 70.5 h was 23%.
With `O=C(c1c[nH]cn1)N1CCC(n2cc(-c3ccsc3)nn2)CC1`, the cytotoxicity at 70.5 h turned out to be 18%.
For `CN(Cc1cnn(C)c1)C(=O)c1cc(C(F)(F)F)n(C)n1`, the cytotoxicity at 70.5 h was -15.3%.
As to `CCC(NS(C)(=O)=O)c1ccccc1C` (stereo unspecified), the cytotoxicity at 70.5 h turned out to be 10.1%.
As to `Cc1n[nH]c(SCCNC2CCN(c3nc4ccccc4s3)CC2)n1`, the cytotoxicity at 70.5 h amounted to 2%.
Regarding `CC(C)Oc1ncccc1CNC(=O)N1CCC1c1ccccc1` (stereo unspecified), the cytotoxicity at 70.5 h came to 26.6%.
As to `Clc1ccc(C2(CNC3=NCCN3)CCCC2)cc1`, the cytotoxicity at 70.5 h worked out at 8.18%.
Turning to `c1cnc(N2CCCC3(CCN(Cc4cccs4)C3)C2)nc1` (stereo unspecified), the cytotoxicity at 70.5 h was -6.41%.
For the compound `Cn1cnc2c1CCN(Cc1csc(C3CCCCC3)n1)C2`, the cytotoxicity at 70.5 h was -14.4%.
Next, `Cc1ccc(-c2cc(N)c(=O)n(C(C)C(=O)NC(C)C)n2)o1` (stereo unspecified): -11.9%.
The same measure for `CCN(Cc1ccncc1)C(=O)c1cn(CCCc2ccccc2)nn1`: -12.5%; for `CCOc1cc(C(=O)NS(C)(=O)=O)cc(-c2ccccc2)c1OC`: 0.968%; for `O=C1CCN(C(=O)NCc2cccc(Oc3ccccc3)c2)CCN1`: -6.34%.
As to `Cn1ccnc1CN1C[C@@H](F)[C@@H](OCc2nc3cnccc3[nH]2)C1`, the cytotoxicity at 70.5 h was 13.1%.
Next, `CCOc1ccc(Cl)cc1CCNC(=O)N1CCCC(CO)C1` (stereo unspecified): -7.21%; `Cc1ccccc1SCC(=O)Nn1cnnc1`: -9.7%.
Consider `CC(Cn1ccnc1)NC(=O)NCc1ccccn1` (stereo unspecified), for which the cytotoxicity at 70.5 h was -15.6%.
Turning to `Cc1cc(Cl)ccc1C(=O)N1C[C@H](C2CC2)[C@@H](N)C1`, the cytotoxicity at 70.5 h is -1.61%.
For the compound `COCC1CN(Cc2ccc(F)cc2)Cc2nn(C)cc21` (stereo unspecified), the cytotoxicity at 70.5 h is -3%.
With `C[C@H]1C[C@@H]2CCN(Cc3ccco3)C[C@H]2O1`, the cytotoxicity at 70.5 h was -7.2%.
Consider `CCn1c(CC2CCN(C(=O)C3CCOC3)CC2)nn(C)c1=O` (stereo unspecified), for which the cytotoxicity at 70.5 h is 32.2%.
`Cc1ccc(Sc2ccc(CN3CCC4(CC3)NCCNC4=O)o2)cc1`: the cytotoxicity at 70.5 h was 1.08%.
On to `c1cc(CNCC2OCCc3cn(CC4CC4)nc32)cs1` (stereo unspecified), for which the cytotoxicity at 70.5 h is -4.34%.
For `O=C(CCc1ccc(-n2cnnn2)cc1)Nc1ccncc1`, the cytotoxicity at 70.5 h was -7.21%.
The same measure for `NC(=O)CSc1ccccc1NC(=O)CC1C=CCC1` (stereo unspecified): 27.1%; for `O=C(Nc1ccc(-c2ccccc2)cn1)C1CCN(C(=O)C2CC2)CC1`: -1.82%; for `CC(NC(=O)N1CCCCCC1)c1ccc(S(N)(=O)=O)cc1` (stereo unspecified): -7.46%.
The same measure for `Cc1cc(CNC2CCCN(c3cccnn3)C2)no1` (stereo unspecified): 5.47%.
As to `Cc1ccn2c(F)c(C(=O)N3CCC4(CCC(=O)N(C)C4)CC3)nc2c1`, the cytotoxicity at 70.5 h was -10.1%.
Next, `Cc1cc(C2CCCN2C(=O)CN2CCc3ccccc32)on1` (stereo unspecified): -0.619%; `CN(C)C(C(=O)N1CCC(c2ncc[nH]2)CC1)c1ccc2c(c1)OCO2` (stereo unspecified): -5.4%.
In the case of `Cc1cc(C)n(CC2CCCN2C(=O)c2c[nH]c(=O)c(Cl)c2)n1` (stereo unspecified), the cytotoxicity at 70.5 h is -11.8%.
Next, `CCC(CO)N(Cc1cccc(O)c1)Cc1ccccc1C` (stereo unspecified): -5.23%.
For `Cc1noc(C)c1CN1CC[C@@H]2O[C@@H](COCC3CC3)CC[C@@H]21`, the cytotoxicity at 70.5 h was -4.44%.
For `O=C(c1ccccn1)N1CCc2nc(-c3cnccn3)nc(O)c2C1`, the cytotoxicity at 70.5 h was -3.62%.
Consider `CCCN1C[C@H](NC(=O)c2cccs2)[C@@H](c2ccc(OC)cc2)C1`, for which the cytotoxicity at 70.5 h turned out to be 0.254%.
With `Cc1ccc(C(=O)N2CC[C@@]3(O)CCN(C(=O)N(C)C)C[C@H]3C2)cc1Cl`, the cytotoxicity at 70.5 h is -8.07%.
As for `CC(=O)Nc1nc(C(=O)Nc2ccc(F)cc2)cs1`, the cytotoxicity at 70.5 h is -4.84%.
As to `O=S1(=O)CCC(S(=O)(=O)c2cccc(S(=O)(=O)N3CCCCCC3)c2)C1` (stereo unspecified), the cytotoxicity at 70.5 h is -10.9%.
Next, `Cc1ccc(C(=O)N2CCCN(C)c3ccc(F)cc32)o1`: -17.9%; `c1cncc(N2CCO[C@H]3CN(CC4CCOC4)C[C@H]32)c1` (stereo partly specified): -3.42%; `CC(C)N(C(=O)Cn1nnnc1CCc1ccccc1)C(C)C`: 10.7%.
As to `c1ccc(C(Cn2cnnc2)N2CCOCC2)nc1` (stereo unspecified), the cytotoxicity at 70.5 h amounted to 0.586%.
Consider `CNS(=O)(=O)c1ccc(CN2CCCC2c2ccc(F)cc2)cc1` (stereo unspecified), for which the cytotoxicity at 70.5 h was -5.9%.
For the compound `Cn1cc(NC(=O)CNC(=O)N2CCN(c3ccc(Cl)cc3)CC2)cn1`, the cytotoxicity at 70.5 h is -5.62%.
Take `Cc1noc(C)c1CN1C[C@H](OCC(=O)N(C)C)[C@H]2OCCC[C@H]21`: the cytotoxicity at 70.5 h was -6.96%.
In the case of `CN(Cc1ccc([S+](C)[O-])cc1)c1ccc(Cl)cn1` (stereo unspecified), the cytotoxicity at 70.5 h was 20.8%.
The same measure for `NCC(=O)N1CCCC1c1ccc(C(=O)NCc2ccoc2)s1` (stereo unspecified): -2.34%.
For the compound `c1cncc(CNCCc2cccs2)c1`, the cytotoxicity at 70.5 h is -9.29%.
With `CCc1nc(CN(C)C2CCN(Cc3ccc(C#N)cc3F)C2)no1` (stereo unspecified), the cytotoxicity at 70.5 h is 14.4%.
The same measure for `C=C(C)COc1ccccc1C(=O)NCc1nc(C)cc(=O)[nH]1`: -11.2%; for `CC1=N[C@@]2(CC[C@@H]3CN(CC4CC4)C[C@@H]32)C(=O)N1CC(C)C`: -15.3%; for `CCN(CC)CCCC(C)NC(=O)c1cccnc1-n1cccn1` (stereo unspecified): 3.18%.
Next, `CC(=O)NCCc1nc(C(C)C)nn1-c1ccncc1C`: -14.7%; `N#Cc1ccccc1N1CCCN(C(=O)CCc2cccs2)CC1`: -8.79%; `CC1=C(C#N)C(=O)NC(=O)/C1=C\c1c(C)nn(-c2ccc(Cl)cc2)c1O`: -6.07%.
As to `CCc1nc(-c2cncnc2C2CCNC2)no1` (stereo unspecified), the cytotoxicity at 70.5 h was 18%.
In the case of `O=C(c1cncc(Br)c1)N1CCC(O)(Cn2ccc3ccncc32)CC1`, the cytotoxicity at 70.5 h is -13.2%.
In the case of `Cn1cnc2c1CCN(Cc1csc(-c3ccsc3)n1)C2`, the cytotoxicity at 70.5 h stood at 20.4%.
`Cc1csc(N2CCCN(C(=O)c3occc3C)CC2)n1`: the cytotoxicity at 70.5 h amounted to 1.54%.
`Cc1ccc(C(=O)N2CCCC(c3nncn3C)C2)c(C)c1` (stereo unspecified): the cytotoxicity at 70.5 h was -4.5%.
Turning to `O=C(O)c1cn(CC2CCCN(c3nccc4occc34)C2)nn1` (stereo unspecified), the cytotoxicity at 70.5 h was -14.6%.
For the compound `CN(Cc1n[nH]c2c1CCC2)C(=O)CCc1cc2n(n1)CCNC2`, the cytotoxicity at 70.5 h was -4.27%.
For `NCCC(=O)N1CCC2(CC1)CN(C(=O)Cc1ccc(Cl)cc1)CCO2`, the cytotoxicity at 70.5 h was -14.3%.
Regarding `CC1CCN(Cc2cc(=O)[nH]c(=O)[nH]2)CC1`, the cytotoxicity at 70.5 h is 8.26%.
Consider `Cc1ccc2nc(NCCN3CCOCC3)n(C)c(=O)c2c1`, for which the cytotoxicity at 70.5 h was 0.444%.
For the compound `CS(=O)(=O)N1CCN(c2ccc3ccc(C(=O)NC4CC4)cn23)CC1`, the cytotoxicity at 70.5 h was determined as 0.444%.
For `Cc1cc(C)n(CCC(=O)N2CCC(Nc3cccnn3)CC2)n1`, the cytotoxicity at 70.5 h was -12.8%.
`Cc1noc(CNc2c(N3CCCC3)cccc2N2CCCC2)n1`: the cytotoxicity at 70.5 h worked out at 7.99%.
As for `NS(=O)(=O)Cc1ccc(CNC(=O)NCC2CCOC2)cc1` (stereo unspecified), the cytotoxicity at 70.5 h is -15.3%.
For the compound `COCCn1cc(C(=O)N2CCCC2c2cc(C)no2)ccc1=O` (stereo unspecified), the cytotoxicity at 70.5 h is -11.6%.
